From patent US20240009218A1, “COMPOSITIONS AND METHODS USING A COMBINATION OF OLEUROPEIN AND QUERCETIN FOR USE IN CARTILAGE DEGENERATION” (SOCIETE DES PRODUITS NESTLE S.A., priority 2020, published 2024) come the findings set out here.

Common to all, as to assay type: cell-based
Assay [1] has as its system SW1353 cells. As to the kind of experiment: Mitochondrial calcium rise in SW1353 chondrocytes, IL-1β osteoarthritic model (mitochondrial aequorin). To be noted: SW1353 cells treated with IL-1β vs control. The protocol:
To test the effect of oleuropein (or oleuropein aglycone), quercetin and their combination in living cells, the inventors measured mitochondrial calcium elevation in HeLa cells. HeLa cells were purchased from ATCC. HeLa cells were seeded in 96-well plates at a density of 50000 cells per well in minimal essential medium (DMEM, Gibco), high glucose, +10% fetal calf serum. Mitochondrial calcium measurements were carried out using Hela cells infected with the adenovirus (from Sirion biotech) expressing the mitochondrially targeted calcium sensor mitochondrial mutated aequorin (Montero et al., 2004). […] Luminescence was measured at the FLIPR Tetra Aequorin (Molecular Devices). […] Calibration of the luminescence data into calcium concentration was carried out using an algorithm, as described previously (Alvarez & Montero, 2002). Custom module analysis based on Excel (Microsoft) and GraphPad Prism 7.02 (Graph Pad) software was used for quantification.
To validate the effect of the pro-inflammatory cytokine Interleukin-1β as an osteoarthritis-mimetic in a chondrocyte cellular model and to test the effect of the mitochondrial calcium uniporter (MCU) ablation on chondrocyte function, the inventors measured chondrocyte function and mitochondrial function in SW1353 cells. […]

The test system of assay [2] is SW1353 cells. As to the kind of experiment: Chondrocyte function by western blot (collagen-IIα1, MMP3, MMP13) in SW1353 cells. The following applies: SW1353 cells treated with IL-1β 24 h or 48 h vs control. Here is the method: To validate the effect of the pro-inflammatory cytokine Interleukin-1β as an osteoarthritis-mimetic in a chondrocyte cellular model and to test the effect of the mitochondrial calcium uniporter (MCU) ablation on chondrocyte function, the inventors measured chondrocyte function and mitochondrial function in SW1353 cells. SW1353 cells were purchased from ATCC. SW1353 cells were seeded in 96-well plates at a density of 10 000 cells per well […] (for mitochondrial calcium measurement) or at a density of 1 000 000 cells (for western blots). Cells were cultured in […] (DMEM, Gibco), high glucose, with 10% fetal calf serum and 1% Penicillin-Streptomycin.
To assess chondrocyte function, the expression of collagen-IIα1, aggrecan, metalloproteinase-3 and -13 (MMP3 and MMP13), were analyzed by western blotting. SW1353 cells were treated or not with 10 ng/ml Interleukin-1b for 24 h or 48 h. Protein extracts were prepared in an appropriate buffer containing 150 mM NaCl, 1.0% IGEPAL CA-630, 0.5% sodium deoxycholate, 0.1% SDS, 50 mM Tris, pH 8.0, Complete EDTA-free protease inhibitor mixture (Roche), 1 mM PMSF, 1 mM NaVO3, 5 mM NaF and 3 mM β-glycerophosphate and phosphatase inhibitors (Roche). 40 μg of total proteins were loaded, according to BCA quantification. Proteins were separated by SDS-PAGE electrophoresis, in commercial 4-12% acrylamide gels (Thermo Fisher Scientific) and transferred onto PVDF membranes (Thermo Fisher Scientific) by wet electrophoretic transfer. Blots were blocked 1 hour at RT with 5% bovine serum albumin (Sigma-Aldrich) in TBS-tween (0.5M Tris, 1.5M NaCl, 0.01% Tween) solution and incubated overnight at 4° C. with primary antibodies. Secondary antibodies were incubated 1 hr at RT. The following antibodies were used: anti-collagen-II al (1:1000, Abcam), anti-aggrecan (1:1000, Abcam), anti-MMP-3 (1:1000, Abcam), anti-MMP-13 (1:1000, Abcam). […] Then the content collagen-IIα1, aggrecan, MMP3 and MMP13 were quantified with densitometry and normalized on the content of GAPDH (detected with anti-GAPDH, 1:5000, Cell Signaling)

Assay [3] deals with SW1353 cells. As to the kind of experiment: Mitochondrial membrane potential (JC-10 ratio fluorescence 590/525 nm) in SW1353 cells. To be noted: after 24 h of IL-1β vs control. The protocol:
To measure mitochondrial membrane potential, SW1353 cells were seeded in 96-well plates at a density of 8000 cells per well in Growth medium (DMEM high glucose, Gibco) with 10% fetal calf serum. Then, cells were loaded with the fluorescent mitochondrial membrane potential sensor JC-10. Fluorescence was acquired with MetaXpress Confocal (Molecular Devices) at following emission wavelengths: 590 nm (excitation at 540 nm) and 525 nm (excitation 490 nm), according to supplier's instructions. The ratio fluorescence at 590 nm/525 nm is proportional to change in the mitochondrial membrane potential.

Assay [4] deals with SW1353 cells. Briefly: Cell death, Annexin-V positive cells (IncuCyte) in SW1353 cells. To be noted: after 5 days of IL-1β treatment vs control. The protocol:
To quantify the effect of Interleukin-1β on cell death in SW1353 cells, kinetic experiments of apoptosis were performed with the IncuCyte ZOOM instrument (Essen Bioscience, Ann Arbor, MI, USA). Cells were seeded at 50% confluence in 96-well-plate format in DMEM medium. After 24 h, cells were incubated with IncuCyte Annexin-V Green (4642), according to supplier's instructions and treated with IL-1β. Four images per well were collected at the indicated time using a 10× objective and bandwidth filters (Ex: 440/80 nm; Em: 504/44 nm). Data were exported as area (μm2) per well covered by Annexin-V positive objects and normalized for the total area covered by the cells.

With “IL-1β: pro-inflammatory cytokine Interleukin-1β used as an osteoarthritis-mimetic in SW1353 chondrocytes”, the “mitochondrial Ca2+ rise stimulated by agonist (histamine)” value in assay [1] is “decrease”. In addition, in assay [2], the collagen-IIα1 content result is listed as “strongly decreased”, the “expression of MMP3” value was “increased” and the “expression of MMP13” value is listed as “increased”. Besides, the “ratio fluorescence (590/525 nm) of mitochondrial membrane potential sensor JC10” value in assay [3] is “significantly decreases”. For the same substance, in assay [4], the “Annexin-V positive cells (cell death)” value was “significantly increased”.
